This is an account of results in patent publication US12606541B2, “PPARg modulators and methods of use” (Eisai R&D Management Co., Ltd., priority 2020, dated 2026).

SMILES strings stand for the structures.

One assay addresses T1, His6-TEV-PPARγ-(234-505) (Homo sapiens, UniProt P37231).
T1 construct: The His6-TEV-PPARγ-(234-505) protein for assay was expressed and purified; TEV cleavage site (N); made in house
T1 sequence (P37231 234-505): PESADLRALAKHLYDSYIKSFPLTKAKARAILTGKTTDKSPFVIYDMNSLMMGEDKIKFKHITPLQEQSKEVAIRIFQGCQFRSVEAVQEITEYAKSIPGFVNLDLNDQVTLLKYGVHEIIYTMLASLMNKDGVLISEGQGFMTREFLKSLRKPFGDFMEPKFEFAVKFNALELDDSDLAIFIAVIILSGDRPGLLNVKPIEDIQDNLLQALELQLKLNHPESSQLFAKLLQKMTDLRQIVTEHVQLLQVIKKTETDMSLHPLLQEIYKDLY
The experiment in a line: TR-FRET Assay to Measure Co-R Peptide Recruitment to PPARγ. Type of assay: biochemical. The conditions noted are these: Co-R peptide (SMRT-ID2) recruitment; top final concentration 20 μM; read-out: TR-FRET i-Ag; AC50. The essentials: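 His-tagged PPARγ (or controls) was preincubated with compound for 20 minutes at room temperature, then 5 nM anti-His terbium antibody and 200 nM FITC-labeled SMRT-ID2 corepressor peptide (final) were added for a further hour. TR-FRET signal was normalized to percent response using 500 nM T0070907 and DMSO controls.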
For orientation: In TR-FRET formats the signal depends on donor and acceptor labels being close together.
In the case of `COc1cc(-c2cc(C(=O)N3CCC(C(=O)N[C@H]4CC[C@@H](C)CC4)CC3)n[nH]2)ccn1` [Example 107, 1-(5-(2-methoxypyridin-4-yl)-1H-pyrazole-3-carbonyl)-N-((1s,4s)-4-methylcyclohexyl)piperidine-4-carboxamide], the AC50 is 342 nM.

Staying with this assay, now noted: Co-R peptide recruitment to PPARγ; read-out: TR-FRET AC50.
Consider `CNc1cc(-c2cc(C(=O)N3CCC(C(=O)NC4CCC(C)CC4)CC3)n[nH]2)ccn1` (centres unmarked) [1-{5-[2-(methylamino)pyridin-4-yl]-1H-pyrazole-3-carbonyl}-N-(4-methylcyclohexyl)piperidine-4-carboxamide], for which the AC50 is greater than 1000 nM.

For the molecule `O=C(O)COc1cc(NC(=O)C2CCN(C(=O)c3cc(-c4ccncc4)[nH]n3)CC2)ccc1Cl` [2-(2-chloro-5-{1-[5-(pyridin-4-yl)-1H-pyrazole-3-carbonyl]piperidine-4-amido}phenoxy)acetic acid], the AC50 is greater than 1000 nM. As for `COc1cc(-c2cc(C(=O)N3CCC4(C(=O)NCc5cccc(Cl)c5)CC34)n[nH]2)c(Cl)cn1` (centres unmarked) [2-[5-(5-chloro-2-methoxypyridin-4-yl)-1H-pyrazole-3-carbonyl]-N-[(3-chlorophenyl)methyl]-2-azabicyclo[3.1.0]hexane-5-carboxamide], the AC50 is greater than 1000 nM. Same read-out and setting: in the case of `COc1cc(-c2cc(C(=O)N3CCC(C(=O)NCc4cccc(Cl)c4)C4C3C4(F)F)n[nH]2)c(Cl)cn1` (centres unmarked) [2-[5-(5-chloro-2-methoxypyridin-4-yl)-1H-pyrazole-3-carbonyl]-N-[(3-chlorophenyl)methyl]-7,7-difluoro-2-azabicyclo[4.1.0]heptane-5-carboxamide] it was greater than 1000 nM; in that of `O=C(c1cc(-c2ccncc2)[nH]n1)N1CCC(C(=O)N2CCc3ccccc3C2)CC1` [2-{1-[5-(pyridin-4-yl)-1H-pyrazole-3-carbonyl]piperidine-4-carbonyl}-1,2,3,4-tetrahydroisoquinoline], greater than 1000 nM. The same measure, in the same setting: in the case of `COc1cc(-c2cc(C(=O)N3CCC4(C(=O)NCc5cccc(Cl)c5)CC4C3)n[nH]2)c(Cl)cn1` (centres unmarked) [3-[5-(5-chloro-2-methoxypyridin-4-yl)-1H-pyrazole-3-carbonyl]-N-[(3-chlorophenyl)methyl]-3-azabicyclo[4.1.0]heptane-6-carboxamide] it was greater than 1000 nM. For `O=C(c1cc(-c2ccncc2)[nH]n1)N1CCC(C(=O)N2CCOCC2)CC1` [4-{1-[5-(pyridin-4-yl)-1H-pyrazole-3-carbonyl]piperidine-4-carbonyl}morpholine], the AC50 was greater than 1000 nM. Still for that read-out and setting: for `CC1CCN(C(=O)C2CCN(C(=O)c3cc(-c4ccncc4)[nH]n3)CC2)CC1` [4-{3-[4-(4-methylpiperidine-1-carbonyl)piperidine-1-carbonyl]-1H-pyrazol-5-yl}pyridine] the value was greater than 1000 nM; for `O=C(c1cc(-c2ccncc2)[nH]n1)N1CCC(C(=O)N2CCC(c3ccccc3)CC2)CC1` [4-{3-[4-(4-phenylpiperidine-1-carbonyl)piperidine-1-carbonyl]-1H-pyrazol-5-yl}pyridine], greater than 1000 nM. Still for that read-out and setting: for `O=C(c1cc(-c2ccncc2)[nH]n1)N1CCC(C(=O)N2CCCCC2)CC1` [4-{3-[4-(piperidine-1-carbonyl)piperidine-1-carbonyl]-1H-pyrazol-5-yl}pyridine] the value was greater than 1000 nM; for `COc1cc(-c2cc(C(=O)N3CC4COCC(C3)C4C(=O)NCc3cccc(Cl)c3)n[nH]2)c(Cl)cn1` (centres unmarked) [7-[5-(5-chloro-2-methoxypyridin-4-yl)-1H-pyrazole-3-carbonyl]-N-[(3-chlorophenyl)methyl]-3-oxa-7-azabicyclo[3.3.1]nonane-9-carboxamide], greater than 1000 nM. Regarding `O=C(c1cc(-c2ccncc2)[nH]n1)N1CCC(C(=O)N2CC[C@@H](O)C2)CC1` [(3R)-1-{1-[5-(pyridin-4-yl)-1H-pyrazole-3-carbonyl]piperidine-4-carbonyl}pyrrolidin-3-ol], the AC50 was greater than 1000 nM. The same measure, in the same setting: for `CN(C)[C@@H]1CCN(C(=O)C2CCN(C(=O)c3cc(-c4ccncc4)[nH]n3)CC2)C1` [(3R)—N,N-dimethyl-1-{1-[5-(pyridin-4-yl)-1H-pyrazole-3-carbonyl]piperidine-4-carbonyl}pyrrolidin-3-amine] the value was greater than 1000 nM. `COc1cc(-c2cc(C(=O)N3CCC[C@@H](C(=O)NCc4cccc(Cl)c4)C3)n[nH]2)c(F)cn1` [(3R)—N-[(3-chlorophenyl)methyl]-1-[5-(5-fluoro-2-methoxypyridin-4-yl)-1H-pyrazole-3-carbonyl]piperidine-3-carboxamide]: the AC50 is greater than 1000 nM. With `CN(C)[C@H]1CCN(C(=O)C2CCN(C(=O)c3cc(-c4ccncc4)[nH]n3)CC2)C1` [(3S)—N,N-dimethyl-1-{1-[5-(pyridin-4-yl)-1H-pyrazole-3-carbonyl]piperidine-4-carbonyl}pyrrolidin-3-amine], the AC50 is greater than 1000 nM. The same measure, in the same setting: for `COc1cc(-c2cc(C(=O)N3CCC[C@H](C(=O)NCc4cccc(Cl)c4)C3)n[nH]2)c(F)cn1` [(3S)—N-[(3-chlorophenyl)methyl]-1-[5-(5-fluoro-2-methoxypyridin-4-yl)-1H-pyrazole-3-carbonyl]piperidine-3-carboxamide] the value was greater than 1000 nM. The same measure, in the same setting: for `COc1cc(-c2cc(C(=O)N3CC[C@@H](C(=O)NC4CCS(=N)(=O)CC4)CC34CC4)n[nH]2)c(F)cn1` (stereo partly drawn) [(7R)-4-[5-(5-fluoro-2-methoxypyridin-4-yl)-1H-pyrazole-3-carbonyl]-N-(1-imino-1-oxo-1λ^6-thian-4-yl)-4-azaspiro[2.5]octane-7-carboxamide] the value was greater than 1000 nM; for `COc1cc(-c2cc(C(=O)N3CC[C@H](C(=O)N[C@@H]4CN(c5ccc(C)nc5)C[C@@H]4F)CC34CC4)n[nH]2)c(F)cn1` [(7S)—N-[(3R,4S)-4-fluoro-1-(6-methylpyridin-3-yl)pyrrolidin-3-yl]-4-[5-(5-fluoro-2-methoxypyridin-4-yl)-1H-pyrazole-3-carbonyl]-4-azaspiro[2.5]octane-7-carboxamide], greater than 1000 nM; for `O=C(Nc1ncco1)C1CCN(C(=O)c2cc(-c3ccncc3)[nH]n2)CC1` [N-(1,3-oxazol-2-yl)-1-[5-(pyridin-4-yl)-1H-pyrazole-3-carbonyl]piperidine-4-carboxamide], greater than 1000 nM.

Consider `COc1cc(-c2cc(C(=O)N3CCC(C(=O)NC4CCN(C(C)=O)C4)CC3)n[nH]2)c(Cl)cn1` (centres unmarked) [N-(1-acetylpyrrolidin-3-yl)-1-[5-(5-chloro-2-methoxypyridin-4-yl)-1H-pyrazole-3-carbonyl]piperidine-4-carboxamide], for which the AC50 was greater than 1000 nM. The same measure, in the same setting: for `COc1cc(-c2cc(C(=O)N3CCC(C(=O)NC4CCN(Cc5ccccc5)C4)CC3)n[nH]2)c(Cl)cn1` (centres unmarked) [N-(1-benzylpyrrolidin-3-yl)-1-[5-(5-chloro-2-methoxypyridin-4-yl)-1H-pyrazole-3-carbonyl]piperidine-4-carboxamide] the value was greater than 1000 nM; for `COc1cc(-c2cc(C(=O)N3CCC(C(=O)NC(C)C4CCC4)CC3)n[nH]2)c(F)cn1` (centres unmarked) [N-(1-cyclobutylethyl)-1-[5-(5-fluoro-2-methoxypyridin-4-yl)-1H-pyrazole-3-carbonyl]piperidine-4-carboxamide], greater than 1000 nM. On the same count and under the same terms, for `CS(=O)(=O)N1CCC(NC(=O)C2CCN(C(=O)c3cc(-c4ccncc4)[nH]n3)CC2)CC1` [N-(1-methanesulfonylpiperidin-4-yl)-1-[5-(pyridin-4-yl)-1H-pyrazole-3-carbonyl]piperidine-4-carboxamide] the value was greater than 1000 nM. The same measure, in the same setting: in the case of `CN1CCC(NC(=O)C2CCN(C(=O)c3cc(-c4ccncc4)[nH]n3)CC2)CC1` [N-(1-methylpiperidin-4-yl)-1-[5-(pyridin-4-yl)-1H-pyrazole-3-carbonyl]piperidine-4-carboxamide] it was greater than 1000 nM. For the molecule `O=C(NC1CCCN(c2ccccc2)C1)C1CCN(C(=O)c2cc(-c3ccncc3)[nH]n2)CC1` (centres unmarked) [N-(1-phenylpiperidin-3-yl)-1-[5-(pyridin-4-yl)-1H-pyrazole-3-carbonyl]piperidine-4-carboxamide], the AC50 was greater than 1000 nM. The same measure, in the same setting: in the case of `COc1cc(-c2cc(C(=O)N3CCC(C(=O)NC4CCN(C(C)(C)C)CC4)CC3)n[nH]2)c(Cl)cn1` [N-(1-tert-butylpiperidin-4-yl)-1-[5-(5-chloro-2-methoxypyridin-4-yl)-1H-pyrazole-3-carbonyl]piperidine-4-carboxamide] it was greater than 1000 nM; in that of `CC(C)(C)CNC(=O)C1CCN(C(=O)c2cc(-c3ccncc3)[nH]n2)CC1` [N-(2,2-dimethylpropyl)-1-[5-(pyridin-4-yl)-1H-pyrazole-3-carbonyl]piperidine-4-carboxamide], greater than 1000 nM; in that of `O=C(Nc1ccc2c(c1)OCCO2)C1CCCN(C(=O)c2cc(-c3ccncc3)[nH]n2)C1` (centres unmarked) [N-(2,3-dihydro-1,4-benzodioxin-6-yl)-1-[5-(pyridin-4-yl)-1H-pyrazole-3-carbonyl]piperidine-3-carboxamide], greater than 1000 nM. Take `Cc1cccc(C)c1NC(=O)C1CCN(C(=O)c2cc(-c3ccncc3)[nH]n2)CC1` [N-(2,6-dimethylphenyl)-1-[5-(pyridin-4-yl)-1H-pyrazole-3-carbonyl]piperidine-4-carboxamide]: the AC50 was greater than 1000 nM. Same read-out and setting: in the case of `CN(CCC#N)C(=O)C1CCN(C(=O)c2cc(-c3ccncc3)[nH]n2)CC1` [N-(2-cyanoethyl)-N-methyl-1-[5-(pyridin-4-yl)-1H-pyrazole-3-carbonyl]piperidine-4-carboxamide] it was greater than 1000 nM; in that of `CCOCCNC(=O)C1CCN(C(=O)c2cc(-c3ccncc3)[nH]n2)CC1` [N-(2-ethoxyethyl)-1-[5-(pyridin-4-yl)-1H-pyrazole-3-carbonyl]piperidine-4-carboxamide], greater than 1000 nM.
